What was measured:
[1] = target: T1, Lysosomal Pro-X carboxypeptidase (Mus musculus, UniProt Q7TMR0); experiment: Inhibition of recombinant mouse PrCP using Mca-Ala-Pro-Lys(Dnp)-OH as substrate after 30 mins by continuous fluorometric assay
T1 sequence (Q7TMR0 whole entry): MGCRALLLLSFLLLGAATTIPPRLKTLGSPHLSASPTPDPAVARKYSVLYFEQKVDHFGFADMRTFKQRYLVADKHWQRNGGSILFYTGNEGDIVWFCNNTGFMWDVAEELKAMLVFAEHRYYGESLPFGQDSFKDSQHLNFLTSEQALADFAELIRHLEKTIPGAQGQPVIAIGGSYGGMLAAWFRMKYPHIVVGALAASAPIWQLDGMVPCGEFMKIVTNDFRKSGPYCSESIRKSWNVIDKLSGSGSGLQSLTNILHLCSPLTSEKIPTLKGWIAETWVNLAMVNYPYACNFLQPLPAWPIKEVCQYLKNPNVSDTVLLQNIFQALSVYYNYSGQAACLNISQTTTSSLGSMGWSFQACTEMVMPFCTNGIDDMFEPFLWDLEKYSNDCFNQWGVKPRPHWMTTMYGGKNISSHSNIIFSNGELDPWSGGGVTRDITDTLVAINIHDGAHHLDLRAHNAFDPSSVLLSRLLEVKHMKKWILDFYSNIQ

[2] = Fraction unbound in human 100% plasma; format: ADME, cell-free
[3] = Fraction unbound in mouse 100% plasma; format: ADME, cell-free
[4] = Clearance in C57Bl/6 mouse at 1 mg/kg, iv and 2 mg/kg, po; format: ADME, organism-based; conditions: in vivo
[5] = Volume of distribution in C57Bl/6 mouse at 1 mg/kg, iv and 2 mg/kg, po; format: ADME, organism-based; conditions: in vivo
[6] = Half life in C57Bl/6 mouse at 1 mg/kg, iv and 2 mg/kg, po; format: ADME, organism-based; conditions: in vivo
Mus musculus [7] = experiment: Dose normalized AUC in C57Bl/6 mouse at 2 mg/kg, po; format: ADME, organism-based; parameters: dose 2 mg/kg, route oral; conditions: in vivo
[8] = Oral bioavailability in C57Bl/6 mouse at 2 mg/kg; format: ADME, organism-based; conditions: in vivo
[9] = Clearance in C57Bl/6 mouse at 2 mg/kg, iv and 10 mg/kg, po; format: ADME, organism-based; conditions: in vivo
[10] = Volume of distribution in C57Bl/6 mouse at 2 mg/kg, iv and 10 mg/kg, po; format: ADME, organism-based; conditions: in vivo
[11] = Half life in C57Bl/6 mouse at 2 mg/kg, iv and 10 mg/kg, po; format: ADME, organism-based; conditions: in vivo
Mus musculus [12] = experiment: Dose normalized AUC in C57Bl/6 mouse at 10 mg/kg, po; format: ADME, organism-based; parameters: dose 10 mg/kg, route oral; conditions: in vivo
[13] = Oral bioavailability in C57Bl/6 mouse at 10 mg/kg; format: ADME, organism-based; conditions: in vivo

Compound	IC50 [1]	fraction unbound [2]	fraction unbound [3]	further results
Clc1ccc(-c2cc([C@@H]3CC[C@@H](N4CCOCC4)C[C@H]3c3ccc(Br)cc3)[nH]n2)cc1	220 nM			
O=C([C@@H]1CC[C@@H](NCc2ccc(Cl)cc2)C[C@H]1c1ccc(F)cc1)N1CC(c2ccccc2)(c2ccccc2)C1	4.7 nM			
Fc1ccc([C@@H]2CN(CCc3ccccc3)CC[C@H]2c2cc(-c3ccc(Cl)cc3)n[nH]2)cc1.O=C(O)C(F)(F)F	2.2 nM	0.03	< 0.01	clearance [4]: 28.9 mL/min/kg; Vd [5]: 13.3 L/kg; half-life [6]: 4.8 h; AUC/dose (Mus musculus [7]): 0.413 µM·kg·h/mg; bioavailability [8]: 33%
Fc1ccc([C@H]2CN(CCc3ccccc3)CC[C@H]2c2cc(-c3ccc(Cl)cc3)n[nH]2)cc1	24 nM			
OC(CN1CC[C@@H](c2cc(-c3ccc(Cl)cc3)n[nH]2)[C@H](c2ccc(F)cc2)C1)c1ccccc1 (some centres undefined)	5.9 nM			
O=C(CN1CC[C@@H](c2cc(-c3ccc(Cl)cc3)n[nH]2)[C@H](c2ccc(F)cc2)C1)c1ccccc1	30 nM			
Clc1ccc(-c2cc(C3(c4ccccc4)CCN(CCc4ccccc4)CC3)[nH]n2)cc1		0.03	< 0.01	
Fc1ccc(-c2cc(C3(c4ccccc4)CCN(CCc4ccccc4)CC3)[nH]n2)cc1	23 nM	0.07	< 0.01	
Cn1nc(-c2ccc(F)cc2)cc1C1(c2ccccc2)CCN(CCc2ccccc2)CC1	3.6 nM	< 0.01	< 0.01	
Cn1nc(-c2ccc(F)cc2)cc1C1(c2ccccn2)CCN(CCc2ccccc2)CC1		0.01	0.04	
Cc1ccccc1[C@@H]1C[C@H](N2CCOCC2)CC[C@H]1C(=O)N1CC(c2ccccc2)(c2ccccc2)C1.O=C(O)C(F)(F)F		0.02	0.04	clearance [9]: 72.2 mL/min/kg; Vd [10]: 10.8 L/kg; half-life [11]: 1.7 h; AUC/dose (Mus musculus [12]): 0.037 µM·kg·h/mg; bioavailability [13]: 7.8%
Fc1ccc([C@@H]2CN(CCc3ccc(Cl)cc3)CC[C@H]2c2cc(-c3ccc(Cl)cc3)n[nH]2)cc1 (racemic)	20 nM			
Fc1ccc([C@@H]2CN(Cc3ccc(Cl)cc3)CC[C@H]2c2cc(-c3ccc(Cl)cc3)n[nH]2)cc1 (racemic)		< 0.01	< 0.01	
Fc1ccc([C@@H]2CN(CCC(F)(F)F)CC[C@H]2c2cc(-c3ccc(Cl)cc3)n[nH]2)cc1 (racemic)	56 nM			
